The record followed here is patent US20050037090A1, “Combination therapy including a cyclooxygenase-2 inhibitor and an antineoplastic agent” (priority 1998, published 2005).

Where two headings read alike, the source gives them in different places.

In experiment [1] the test system is HT-29 human colon cancer cells. The conditions noted are these: mice with HT-29 tumors; 5-FU i.p. 50 mg/kg on days 12, 13, 14, 15; celecoxib in the diet.
Method: (§1) Mice were injected subcutaneously in the left paw (1×10^6 tumor cells suspended in 30% Matrigel) and tumor volume was evaluated using a phlethysmometer twice a week for 30-60 days. Implantation of human colon cancer cells (HT-29) into nude mice produces tumors that will reach 0.6-2 ml between 30-50 days. […] The data are expressed as the mean+/−SEM. Student's and Mann-Whitney tests were used to assess differences between means using the InStat software package.
(§2) The efficacy of both agents were determined by measuring tumor volume.
Experiment [2] deals with HT-29 human colon cancer cells. In words: HT-29 Model, third assay (C): tumor volume, 5-FU days 14-17 with or without celecoxib or valdecoxib in the diet (Table 21). It counts as in vivo, mice. The following applies: for reduction in tumor volume: mice with HT-29 tumors, 5-FU i.p. 50 mg/kg days 14 through 17, celecoxib 1600 ppm, valdecoxib 160 ppm in the diet.
Method: as §1, §2
Experiment [3] relates to HT-29 human colon cancer cells.
Method: as §1, §2
Experiment [4] has as its system HT-29 human colon cancer cells. Kind of experiment: HT-29 Model, fourth assay (D): celecoxib 10, 40 or 160 ppm in the diet from day 10 (Table 22). It counts as in vivo, mice. The conditions noted are these: celecoxib 10, 40 or 160 ppm in the diet beginning at day 10.
Method: as §1
Experiment [5] deals with Lewis Lung tumors. In words: Lewis Lung Model: tumor volume and lung metastasis in mice. In kind it is in vivo.
Method: Mice were injected subcutaneously in the left paw (1×10^6 tumor cells suspended in 30% Matrigel) and tumor volume was evaluated using a phlethysmometer twice a week for 30-60 days. […] The data are expressed as the mean+/−SEM. Student's and Mann-Whitney tests were used to assess differences between means using the InStat software package. […] Analysis of lung metastasis was done in all the animals by counting metastasis in a stereomicroscope and by histochemical analysis of consecutive lung sections.

`O=c1[nH]cc(F)c(=O)[nH]1` [5-FU, 5-fluorouracil]: the “reduction of tumor volume” value in experiment [1] is recorded as 61%. Further, the “reduction in tumor volume” value in experiment [2] is reported as 35%.
As for `NS(=O)(=O)c1ccc(-n2nc(C(F)(F)F)cc2-c2ccc(Cl)cc2)cc1` [SC-58236], the “formation of lung metastasis” value in experiment [3] (mice with HT-29 tumors) was “completely inhibited”. In experiment [3] (mice with HT-29 tumors, COX-2 inhibitor in the diet), the “reduction of tumor volume” value was 89%.
In the case of `Cc1ccc(-c2cc(C(F)(F)F)nn2-c2ccc(S(N)(=O)=O)cc2)cc1` [celecoxib, 4-[5-(4-methylphenyl)-3-(trifluoromethyl)-1H-pyrazol-1-yl]-benzenesulfonamide], the “effect on HT-29 tumors, dose dependence” value in experiment [4] is reported as “approximate dose dependent effect”. Moreover, the “reduction of tumor volume” value in experiment [1] was 68%. Also, the “Tumor Volume” value in experiment [2] (celecoxib 160 ppm in diet, day 11) is 0.05 mL; in experiment [2] (celecoxib 160 ppm in diet, day 14), 0.13 mL; in experiment [2] (celecoxib 160 ppm in diet, day 18), 0.17 mL; in experiment [2] (celecoxib 160 ppm in diet, day 21), 0.2 mL; in experiment [2] (celecoxib 160 ppm in diet, day 28), 0.25 mL; in experiment [2] (celecoxib 160 ppm in diet, day 35), 0.35 mL. Also, in experiment [2] (celecoxib 160 ppm in diet, day 42), the “Tumor Volume” value came to 0.52 mL. Also, in experiment [2], the “reduction in tumor volume” value amounted to 52%. The “size of the metastasic lesions in the lung, histopathological analysis” value in experiment [5] (celecoxib in the diet) is “dose-dependently reduced”. Further, in experiment [5] (celecoxib in the diet 480-3200 ppm), the “reduction of surface metastasis (lung)” value is “more than 50%”. In addition, the “effect on lung metastasis” value in experiment [5] (celecoxib in the diet, lower dose of 160 ppm) is reported as “did not affect”.
Regarding `COc1ccc2c(c1)c(CC(=O)O)c(C)n2C(=O)c1ccc(Cl)cc1` [indomethacin], in experiment [3] (mice with HT-29 tumors), the “formation of lung metastasis” value is given as “ineffective”. Further, the “inhibition of tumor formation” value in experiment [3] (mouse, in vivo, 2 mg/kg/day) is 77%.
For the compound `Cc1onc(-c2ccccc2)c1-c1ccc(S(N)(=O)=O)cc1` [valdecoxib, 4-(5-methyl-3-phenylisoxazol-4-yl)benzenesulfonamide], the “reduction in tumor volume” value in experiment [2] was found to be 69%. Besides, the “Tumor Volume” value in experiment [2] (valdecoxib 160 ppm in diet, day 11) is 0.06 mL; in experiment [2] (valdecoxib 160 ppm in diet, day 14), 0.13 mL; in experiment [2] (valdecoxib 160 ppm in diet, day 18), 0.17 mL; in experiment [2] (valdecoxib 160 ppm in diet, day 21), 0.2 mL; in experiment [2] (valdecoxib 160 ppm in diet, day 28), 0.25 mL; in experiment [2] (valdecoxib 160 ppm in diet, day 35), 0.32 mL. Also, the “Tumor Volume” value in experiment [2] (valdecoxib 160 ppm in diet, day 42) stood at 0.36 mL.
